The structures appear in SMILES notation. Where only a bound is given, the exact number is not on record here.

The source of these data is ChEMBL document CHEMBL4052701, “Bioactive new withanolides from the cultured soft coral Sinularia brassica” (Bioorg Med Chem Lett, 2017).

Assay [1] has as its system Neutrophil. The assay is described as follows: Antiinflammatory activity in human neutrophils assessed as inhibition of fMLP/CB-induced superoxide anion generation by measuring superoxide […] dismutase inhibitable reduction of ferricytochrome c at 10 uM incubated for 5 mins. It counts as functional.
The test system of assay [2] is Neutrophil. The assay is described as follows: Antiinflammatory activity in human neutrophils assessed as inhibition of fMLP/CB-induced elastase release at 10 uM incubated for 5 mins in presence of MeO-Suc-Ala-Ala-Pro-Val-p-nitroanilide. It counts as functional.
Assay [3] concerns Neutrophil. The assay is described as follows: Antiinflammatory activity in human neutrophils assessed as inhibition of fMLP/CB-induced superoxide anion generation by measuring superoxide […] dismutase inhibitable reduction of ferricytochrome c incubated for 5 mins. It counts as functional, cell-based.
Assay [4] relates to Neutrophil. The assay is described as follows: Antiinflammatory activity in human neutrophils assessed as inhibition of fMLP/CB-induced elastase release incubated for 5 mins in presence of MeO-Suc-Ala-Ala-Pro-Val-p-nitroanilide. It counts as functional, cell-based.
Assay [5] relates to P388. The assay is described as follows: Cytotoxicity against mouse P388 cells incubated for 72 hrs by alamar blue assay. It counts as functional, cell-based. To be noted: P388, 72 h. Background: Resazurin is reduced to fluorescent resorufin, in cell work by metabolically active cells.
Assay [6] deals with HT-29. The assay is described as follows: Cytotoxicity against human HT-29 cells incubated for 72 hrs by alamar blue assay. It counts as functional, cell-based. To be noted: HT-29, 72 h.
The test system of assay [7] is K562. Put plainly: Cytotoxicity against human K562 cells incubated for 72 hrs by alamar blue assay. Format: functional, cell-based. The settings on record: K562, 72 h.
Assay [8] deals with MOLT-4. The assay is described as follows: Cytotoxicity against human MOLT4 cells incubated for 72 hrs by alamar blue assay. It counts as functional, cell-based. To be noted: MOLT-4, 72 h.

For the compound `CC[C@H](Nc1ncnc2[nH]cnc12)c1nc2cccc(F)c2c(=O)n1-c1ccccc1` [IDELALISIB], the inhibition – broadly, the change of the read-out against control, counted positive when it falls – at 10 µM is 103% in assay [1] and 99.6% in assay [2]. In addition, the figures for the IC50 in assay [3] and in assay [4] were 0.07 µM and 0.3 µM, respectively.
In the case of `C[C@H]1[C@H]2[C@H](C[C@H]3[C@@H]4CCC5=CC(=O)C=C[C@]5(C)[C@H]4CC[C@]23C)O[C@@]2(OC(=O)[C@@H](C)[C@H]2C)[C@H]1O`, the inhibition at 10 µM in assay [1] worked out at 34.3%; in assay [2], 11.4%. For the same compound, the IC50 (in general, the midpoint of a concentration-inhibition curve) was 18.3 µM in assay [5]; over 10 µM in assay [3]; 20.5 µM in assay [6]; 17.4 µM in assay [7]; over 10 µM in assay [4]; 13.7 µM in assay [8].
As to `C[C@@H]([C@H]1CC[C@H]2[C@@H]3CCC4=CC(=O)C=C[C@]4(C)[C@H]3CC[C@]12C)[C@H]1C[C@H](C)[C@@H](C)C(=O)O1`, the inhibition at 10 µM in assay [1] is 26.3%; in assay [2], 25%. Besides, the IC50 in assay [5] is over 40 µM; in assay [3], over 10 µM; in assay [6], over 40 µM; in assay [7] it was over 40 µM; in assay [4] it was over 10 µM; in assay [8], over 40 µM.
With `C[C@@H]1C(=O)[C@@]2(OC(=O)[C@H](C)[C@H]2C)O[C@H]2C[C@H]3[C@@H]4CCC5=CC(=O)C=C[C@]5(C)[C@H]4CC[C@]3(C)[C@H]21`, the figures for the inhibition at 10 µM in assay [1] and in assay [2] were 17.3% and 12.5%, respectively. Further, the IC50 was over 40 µM in assay [5]; over 10 µM in assay [3]; over 40 µM in assay [6]; over 40 µM in assay [7]; over 10 µM in assay [4]; over 40 µM in assay [8].
Take `O=c1[nH]cc(F)c(=O)[nH]1` [FLUOROURACIL]: the IC50 in assay [5] was determined as 5.8 µM; in assay [6], 7.2 µM; in assay [7], 30.5 µM; in assay [8], 6.2 µM.
As to `C[C@H]1[C@H]2[C@H](C[C@H]3[C@@H]4CCC5=CC(=O)C=C[C@]5(C)[C@H]4CC[C@]23C)O[C@]2(OC(=O)[C@H](C)[C@H]2C)[C@H]1O`, the inhibition at 10 µM in assay [1] was found to be 14.4%; in assay [2], 32.4%. For the same compound, the IC50 in assay [5] was 39.8 µM; in assay [3] it was over 10 µM; in assay [6], 24.4 µM; in assay [7], 29.7 µM; in assay [4] it was over 10 µM; in assay [8] it was 28.6 µM.
In the case of `C[C@H]1[C@H]([C@@]2(O)O[C@H]3C[C@H]4[C@@H]5CCC6=CC(=O)C=C[C@]6(C)[C@H]5CC[C@]4(C)[C@H]3[C@@H]2C)OC(=O)[C@@H]1C`, the inhibition at 10 µM worked out at 32.1% in assay [1] and 9.5% in assay [2]. Further, the IC50 in assay [5] was 18.7 µM; in assay [3], over 10 µM; in assay [6], 11.2 µM; in assay [7], 12.6 µM; in assay [4] it was over 10 µM; in assay [8], 17.2 µM.
For `C[C@@H]1[C@H]([C@H]2OC(=O)[C@@H](C)[C@H]2C)O[C@H]2C[C@H]3[C@@H]4CCC5=CC(=O)C=C[C@]5(C)[C@H]4CC[C@]3(C)[C@@H]12`, the inhibition at 10 µM in assay [1] came out at 87.7%; in assay [2] it was 114%. Besides, the IC50 in assay [5] was 29.9 µM; in assay [3], 3.5 µM; in assay [6], 18.7 µM; in assay [7] it was 8.7 µM; in assay [4], 1.4 µM; in assay [8], 12.1 µM.
